Among the data in patent publication US20110053897A1 (IRM LLC, priority 2009, published 2011) are IC50 values, retold here.

pIC50: −log10 of the molar value.

One assay addresses T1, Syk kinase (Homo sapiens, UniProt P43405).
T1 construct: purchased
Description: Syk kinase inhibition, Caliper LabChip off-chip mobility-shift kinase assay. The format is biochemical. The following applies: Caliper LabChip assay; read-out: Syk Enzyme IC50. A digest of the protocol:
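Purified Syk pre-incubated 15 min with compound in 100 mM HEPES pH 7.5, 1 mM DTT, 10 mM MgCl2 or MnCl2, 0.002% Brij-35, then 1.5 μM fluorescein peptide and ATP at apparent KM added; 1–1.5 h at room temperature, 4% DMSO, EDTA stop. Microfluidic mobility-shift product/substrate conversion gave % inhibition; IC50 from 12-point series (10–0.00003 μM) by 4-parameter fit.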
Take `CCC(O)c1ccnc(Nc2cc3ccn(CCO)c(=O)c3c(NC(C)(C)C)n2)c1` (stereo not shown) [compound 710]: the pIC50 was 7.43.

`CC(C)n1ccc2cc(Nc3cnccn3)nc(N[C@@H](C)CO)c2c1=O` [compound 967]: the negative logarithm of the IC50 (pIC50) is 7.77.

Consider `Nc1ncc(-c2cc3ccn(CCO)c(=O)c3c(N[C@H]3CC[C@@H](CO)C3)n2)cn1` [compound 912], for which the pIC50 was 8.70.

Consider `CC(C)(C)Nc1nc(Nc2cc(C(F)CO)ccn2)cc2ccn(CCO)c(=O)c12` (stereo not shown) [compound 872], for which the pIC50 is greater than 8.93.

Regarding `CC(C)(C)Nc1nc(Nc2cc(-c3ccccc3)ccn2)cc2ccn(CCO)c(=O)c12` [compound 829], the pIC50 was 6.57.

On to `CCn1ccc2cc(Nc3cnccn3)nc(NC(C)(CO)CO)c2c1=O` [compound 809], for which the pIC50 is 6.82.

Regarding `O=c1[nH]ccc2cc(Nc3cnccn3)nc(NC3CCC3)c12` [compound 767], the pIC50 is 8.52.

For `CC(C)(C)Nc1nc(Nc2cc(N3CCCC(CO)C3)ccn2)cc2ccn(CCO)c(=O)c12` (stereo not shown) [compound 845], the pIC50 is 6.12.

Regarding `Cc1ccnc(Nc2cc3ccn(C(C)C)c(=O)c3c(N[C@H]3CC[C@H](O)CC3)n2)c1` [compound 964], the pIC50 is 7.29.

`CCn1ccc2cc(Nc3cnccn3)nc(NCC(F)(F)F)c2c1=O` [compound 1044]: the pIC50 was 6.96.

As to `CC(C)(O)Cn1ccc2cc(Nc3cc(C(C)(C)O)ncn3)nc(NC(C)(C)C)c2c1=O` [compound 731], the pIC50 is 6.96.

With `Cn1ccc2cc(Nc3nccc(O)n3)nc(Nc3ccc(C(N)=O)cc3)c2c1=O` [compound 804], the pIC50 was 6.71.

Turning to `Nc1ncc(-c2cc3ccn(C4COC4)c(=O)c3c(NC3CCOCC3)n2)cn1` [compound 770], the pIC50 is 7.44.

Turning to `CC(C)(C)Nc1nc(-c2cnc(N)nc2)cc2ccn(C(CO)CO)c(=O)c12` [compound 922], the negative logarithm of the IC50 (pIC50) is 8.22.

With `CC(C)n1ccc2cc(-c3cnc(N)nc3)nc(N[C@H]3CC[C@@H](O)C3)c2c1=O` [compound 1031], the pIC50 is 8.15.

With `COCCNCc1ccnc(Nc2cc3ccn(CCO)c(=O)c3c(NC(C)(C)C)n2)c1` [compound 694], the pIC50 was 6.63.

For the compound `CC(C)n1ccc2cc(Nc3cnccn3)nc(N[C@H]3CC[C@@H](CO)C3)c2c1=O` [compound 988], the pIC50 was 8.52.

With `CC(O)Cn1ccc2cc(-c3cnc(N)nc3)nc(NC(C)(C)C)c2c1=O` (stereo not shown) [compound 927], the pIC50 is 7.85.

For `CC(O)c1ccnc(Nc2cc3ccn(CC(N)=O)c(=O)c3c(NC3(C)CCC3)n2)c1` (stereo not shown) [compound 721], the pIC50 was 7.74.

The assay is the same for the next values; noted with them: read-out: Syk Enzyme IC50.
For `Cc1cc(Nc2nc(-c3ccnc(N)n3)cc3cc[nH]c(=O)c23)ccc1C1CCN(CCC#N)CC1` [compound 67], the pIC50 was 6.48.

Turning to `Cc1ccnc(Nc2cc3cc[nH]c(=O)c3c(NC[C@H](C)O)n2)c1` [compound 501], the pIC50 is 7.42.

Turning to `CCC(C)Nc1nc(Nc2ccccn2)cc2cc[nH]c(=O)c12` (stereo not shown) [compound 263], the pIC50 was 6.12.

On to `CC(C)CNc1nc(Nc2ccccn2)cc2cc[nH]c(=O)c12` [compound 288], for which the pIC50 was 6.16.

Consider `COc1cncc(-c2cc3cc[nH]c(=O)c3c(Nc3ccc(C4CCN(C(C)C(=O)NC(C)C)CC4)c(C)c3)n2)n1` (stereo not shown) [compound 175], for which the pIC50 is 6.84.

In the case of `Cc1ccnc(Nc2cc3cc[nH]c(=O)c3c(N3CC[C@H](CO)C3)n2)c1` [compound 400], the pIC50 was 6.05.

Turning to `CCN1CCN(CCc2ccc(Nc3nc(-c4cnn(C)c4)cc4cc[nH]c(=O)c34)cc2)CC1` [compound 441], the pIC50 was 7.24.

For the compound `O=c1[nH]ccc2cc(-c3cncnc3)nc(Nc3ccc(CCn4cncn4)cc3)c12` [compound 34], the pIC50 is 6.74.

In the case of `Nc1ncc(-c2cc3cc[nH]c(=O)c3c(N[C@@H]3CCC[C@@H]3O)n2)cn1` [compound 182], the pIC50 was 7.52.

For `Cc1ccnc(Nc2cc3cc[nH]c(=O)c3c(NC3CCOC3)n2)c1` (stereo not shown) [compound 273], the pIC50 is 7.38.

`COCCCNc1nc(Nc2cc(C)ccn2)cc2cc[nH]c(=O)c12` [compound 281]: the pIC50 is 7.06.

With `CC(C)(C)N1CC=C(c2ccc(Nc3nc(-c4cncnc4)cc4cc[nH]c(=O)c34)cc2)CC1` [compound 94], the pIC50 is 7.89.

For `COCCNC(=O)c1ccc(Nc2nc(-c3cnc(C)nc3)cc3cc[nH]c(=O)c23)cc1` [compound 74], the pIC50 is 7.54.

Turning to `Cc1nc(-c2cc3cc[nH]c(=O)c3c(Nc3ccc([C@H]4CC[C@H](N5CCOCC5)CC4)cc3)n2)cnc1N` [compound 102], the pIC50 is 6.65.

Regarding `CCCc1cc2cc[nH]c(=O)c2c(Nc2ccc(C3CCN(C4CC4)CC3)c(C)c2)n1` [compound 230], the pIC50 was 6.25.

Regarding `Cc1ncc(-c2cc3cc[nH]c(=O)c3c(Nc3ccc(C4CCN(CCC#N)CC4)c(C)c3)n2)cn1` [compound 73], the pIC50 is 7.09.

Consider `COc1cncc(-c2cc3cc[nH]c(=O)c3c(Nc3ccc(CCN4CCCN(C)CC4)cc3)n2)n1` [compound 434], for which the pIC50 was 7.43.

Turning to `[2H]C([2H])([2H])n1ccc2cc(Nc3cc(C)c(F)cn3)nc(NC(C)(C)C)c2c1=O` [compound 531], the pIC50 is 6.53.

`COc1cncc(-c2cc3cc[nH]c(=O)c3c(Nc3ccc(CCN4CCNC5(CCCC5)C4)cc3)n2)n1` [compound 22]: the pIC50 is 7.11.

With `COc1cncc(-c2cc3cc[nH]c(=O)c3c(Nc3ccc(C4CN(CCS(C)(=O)=O)C4)cc3)n2)n1` [compound 148], the pIC50 is 7.66.

As to `Cc1ccc(-c2cc3cc[nH]c(=O)c3c(Nc3ccc(C4CCN(C5CC5)CC4)c(C)c3)n2)cn1` [compound 219], the pIC50 is 7.05.

Turning to `COCCNc1nc(-c2cnc(N)nc2)cc2cc[nH]c(=O)c12` [compound 447], the pIC50 was 7.00.

On to `CCCCNc1nc(Nc2cc(C)ccn2)cc2cc[nH]c(=O)c12` [compound 532], for which the pIC50 is 6.60.

With `COc1cncc(-c2cc3cc[nH]c(=O)c3c(Nc3ccc(CCN4CCN(C(C)=O)CC4)cc3)n2)n1` [compound 45], the pIC50 was 7.21.

Turning to `CCOC(=O)/C=C/c1cc2cc[nH]c(=O)c2c(Nc2ccc(N3CCOCC3)cc2)n1` [compound 242], the pIC50 is 6.48.

As to `COc1cncc(-c2cc3cc[nH]c(=O)c3c(Nc3ccc(C4CCN(C5COC5)CC4)c(C)c3)n2)n1` [compound 164], the pIC50 was 6.54.

With `CCn1ccc2cc(Nc3cc(C)ccn3)nc(N[C@H]3CCCC[C@@H]3O)c2c1=O` (racemic) [compound 406], the pIC50 was 6.32.

Take `CCN1CCN(CCc2ccc(Nc3nc(-c4ccc(C)nc4)cc4c(F)c[nH]c(=O)c34)cc2)CC1` [compound 443]: the pIC50 was 6.38.

In the case of `CC(C)Nc1nc(Nc2cnccn2)cc2cc[nH]c(=O)c12` [compound 462], the negative logarithm of the IC50 (pIC50) is 7.52.

Turning to `Nc1ncc(-c2cc3cc[nH]c(=O)c3c(NC[C@@H](O)c3cccc(Cl)c3)n2)cn1` [compound 449], the pIC50 is 6.42.

`COc1cncc(-c2cc3cc[nH]c(=O)c3c(Nc3ccc(C4CCN(C(=O)C(C)(C)N)CC4)c(C)c3)n2)n1` [compound 52]: the pIC50 is 7.52.

As to `O=c1[nH]ccc2cc(Nc3cnccn3)nc(Nc3ccc(N4CCOCC4)cc3)c12` [compound 461], the pIC50 is 7.00.

With `O=c1[nH]ccc2cc(C3=CCSCC3)nc(Nc3ccc(N4CCOCC4)cc3)c12` [compound 14], the pIC50 was 6.09.
